Measurements taken from patent US9926297B2, “Bicyclic AZA compounds as muscarinic M1 receptor and/or M4 receptor agonists” (Heptares Therapeutics Limited, priority 2014, dated 2018).
Like-named read-outs stand apart in the source and are kept apart here.

Assays:
[1] = target: T1, human muscarinic M1 receptor (Homo sapiens, UniProt P11229); test: Alphascreen Surefire phospho-ERK1/2 functional assay, M1; assay type: cell-based; conditions: for EC50: CHO cells stably expressing human M1, phospho-ERK1/2, * = variable results, read-out: pEC50 M1 (converted); for Emax: CHO
T1 sequence (P11229 1-460): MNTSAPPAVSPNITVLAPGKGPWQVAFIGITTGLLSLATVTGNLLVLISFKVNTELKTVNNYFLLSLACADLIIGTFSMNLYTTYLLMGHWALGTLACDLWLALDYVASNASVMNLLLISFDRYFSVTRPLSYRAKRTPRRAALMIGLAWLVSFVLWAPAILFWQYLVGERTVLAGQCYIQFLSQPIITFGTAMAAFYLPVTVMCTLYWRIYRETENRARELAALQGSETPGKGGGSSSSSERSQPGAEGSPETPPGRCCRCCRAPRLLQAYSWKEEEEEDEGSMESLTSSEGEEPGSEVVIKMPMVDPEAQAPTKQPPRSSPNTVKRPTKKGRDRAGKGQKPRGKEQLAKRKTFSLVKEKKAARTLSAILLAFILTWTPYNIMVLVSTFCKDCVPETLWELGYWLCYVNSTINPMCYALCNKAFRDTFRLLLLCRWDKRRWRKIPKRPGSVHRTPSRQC

[2] = target: T2, human muscarinic M4 receptor (Homo sapiens, UniProt P08173); test: Alphascreen Surefire phospho-ERK1/2 functional assay, M4; assay type: cell-based; conditions: for EC50: CHO cells stably expressing human M4, phospho-ERK1/2, * = variable results, read-out: pEC50 M4 (converted); for Emax: CHO
T2 construct: expressed in transfected cells
T2 sequence (P08173 1-479): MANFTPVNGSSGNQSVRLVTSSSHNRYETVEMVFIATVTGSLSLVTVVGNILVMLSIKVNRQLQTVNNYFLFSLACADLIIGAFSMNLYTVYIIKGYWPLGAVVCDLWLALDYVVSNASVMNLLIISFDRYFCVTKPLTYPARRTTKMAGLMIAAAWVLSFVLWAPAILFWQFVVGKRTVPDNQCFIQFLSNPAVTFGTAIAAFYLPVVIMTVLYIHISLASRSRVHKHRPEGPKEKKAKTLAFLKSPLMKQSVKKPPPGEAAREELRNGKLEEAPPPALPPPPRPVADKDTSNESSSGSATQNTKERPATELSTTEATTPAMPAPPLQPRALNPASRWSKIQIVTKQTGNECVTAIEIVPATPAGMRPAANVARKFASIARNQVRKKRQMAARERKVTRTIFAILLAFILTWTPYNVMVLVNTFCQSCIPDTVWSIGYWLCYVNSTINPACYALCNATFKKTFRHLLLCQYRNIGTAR

[3] = read-out: % Emax cf. ACh, M1, CHO cells stably expressing human M1, relative to ACh
[4] = read-out: % Emax cf. ACh, M4, CHO cells stably expressing human M4, relative to ACh

Structure (SMILES) | EC50 [1] | Emax ([1]; read-out: % Emax cf. ACh, M1) | EC50 [2] | Emax ([2]; read-out: % Emax cf. ACh, M4) | Emax [1, 3] | Emax [2, 4]
CCOC(=O)N1CCC2(CC(N3CCC(C)(c4nc(C)no4)CC3)C2)C1 (single isomer, unassigned) [1-41 Isomer 2, ethyl 2-[4-methyl-4-(3-methyl-1,2,4-oxadiazol-5-yl)piperidin-1-yl]-6-azaspiro[3.4]octane-6-carboxylate] | 1000 nM | 52% | 251 nM | 35% |  | 
CCn1nccc1C1CCN(C2CC3(CCN(C(=O)OC)C3)C2)CC1 (single isomer, unassigned) [1-46 Isomer 2, methyl 2-[4-(1-ethyl-1H-pyrazol-5-yl)piperidin-1-yl]-6-azaspiro[3.4]octane-6-carboxylate] | > 20000 nM |  | 200 nM |  | 35% | 63%
CCCn1nccc1C1CCN(C2CC3(CCN(C(=O)OC)C3)C2)CC1 (single isomer, unassigned) [1-48 Isomer 2, methyl 2-[4-(1-propyl-1H-pyrazol-5-yl)piperidin-1-yl]-6-azaspiro[3.4]octane-6-carboxylate] | > 20000 nM |  | 631 nM |  | 63% | 68%
CCOC(=O)N1CCC2(CC(N3CCC(c4nccn4CCOC)CC3)C2)C1 (single isomer, unassigned) [1-51 Isomer 2, ethyl 2-{4-[1-(2-methoxyethyl)-1H-imidazol-2-yl]piperidin-1-yl}-6-azaspiro[3.4]octane-6-carboxylate] | 1260 nM |  | 158 nM |  | 74% | 106%
CCOC(=O)N1CCC2(CC(N3CCC(c4nccn4CC(=O)O)CC3)C2)C1 (single isomer, unassigned) [1-53 Isomer 2, (2-{1-[6-(ethoxycarbonyl)-6-azaspiro[3.4]oct-2-yl]piperidin-4-yl}-1H-imidazol-1-yl)acetic acid] | 5010 nM |  | 1260 nM |  | 38% | 80%
CCOC(=O)N1CCC2(CC(N3CCC(c4nccn4CC(=O)NC)CC3)C2)C1 (single isomer, unassigned) [1-54 Isomer 2, ethyl 2-(4-{1-[2-(methylamino)-2-oxoethyl]-1H-imidazol-2-yl}piperidin-1-yl)-6-azaspiro[3.4]octane-6-carboxylate] | > 20000 nM |  | 794 nM |  | 51% | 74%
COC(=O)N1CCC2(CC(N3CCC(c4nn(C)cc4C)CC3)C2)C1 (single isomer, unassigned) [1-55 Isomer 2, methyl 2-[4-(1,4-dimethyl-1H-pyrazol-3-yl)piperidin-1-yl]-6-azaspiro[3.4]octane-6-carboxylate] | 5010 nM |  | 501 nM |  | 40% | 64%
CCOC(=O)N1CCC2(CC(N3CCC(c4c(C)cnn4CC)CC3)C2)C1 (single isomer, unassigned) [1-59 Isomer 2, ethyl 2-[4-(1-ethyl-4-methyl-1H-pyrazol-5-yl)piperidin-1-yl]-6-azaspiro[3.4]octane-6-carboxylate] | 398 nM |  | 100 nM |  | 38% | 76%
CCOC(=O)N1CCC2(CC(N3CCC(c4c(CC)cnn4C)CC3)C2)C1 (single isomer, unassigned) [1-60 Isomer 2, ethyl 2-[4-(4-ethyl-1-methyl-1H-pyrazol-5-yl)piperidin-1-yl]-6-azaspiro[3.4]octane-6-carboxylate] | 316 nM |  | 39.8 nM |  | 82% | 88%
CCOC(=O)N1CCC2(CC(N3CCC(n4cnnn4)CC3)C2)C1 (single isomer, unassigned) [1-62 Isomer 2, ethyl 2-[4-(1H-tetrazol-1-yl)piperidin-1-yl]-6-azaspiro[3.4]octane-6-carboxylate] | 1260 nM |  | > 20000 nM |  | 73% | 10%
CCOC(=O)N1CCC2(CC(N3CCC(n4nnnc4C)CC3)C2)C1 (single isomer, unassigned) [1-63 Isomer 2, ethyl 2-[4-(5-methyl-1H-tetrazol-1-yl)piperidin-1-yl]-6-azaspiro[3.4]octane-6-carboxylate] | > 20000 nM |  | 1000 nM |  | 82% | 24%
CCOC(=O)N1CCC2(CC(N3CCC(c4nnnn4C)CC3)C2)C1 (single isomer, unassigned) [1-64 Isomer 2, ethyl 2-[4-(1-methyl-1H-tetrazol-5-yl)piperidin-1-yl]-6-azaspiro[3.4]octane-6-carboxylate] | 5010 nM |  | 316 nM |  | 40% | 78%
CCOC(=O)N1CCC2(CC(N3CCC(c4nnnn4CC)CC3)C2)C1 (single isomer, unassigned) [1-65 Isomer 2, ethyl 2-[4-(1-ethyl-1H-tetrazol-5-yl)piperidin-1-yl]-6-azaspiro[3.4]octane-6-carboxylate] | > 20000 nM |  | 251 nM |  | 60% | 73%
CCOC(=O)N1CCC2(CC(N3CCC(c4nnn(CC)n4)CC3)C2)C1 (single isomer, unassigned) [1-66 Isomer 2, ethyl 2-[4-(2-ethyl-2H-tetrazol-5-yl)piperidin-1-yl]-6-azaspiro[3.4]octane-6-carboxylate] | > 20000 nM |  | 251 nM |  | 14% | 32%
CCOC(=O)N1CCC2(CC(N3CCC(c4nnnn4C4CC4)CC3)C2)C1 (single isomer, unassigned) [1-67 Isomer 2, ethyl 2-[4-(1-cyclopropyl-1H-tetrazol-5-yl)piperidin-1-yl]-6-azaspiro[3.4]octane-6-carboxylate] | 3160 nM |  | 316 nM |  | 37% | 75%
[2H]C([2H])(C)OC(=O)N1CCC2(CC(N3CCC(n4cccn4)CC3)C2)C1 (single isomer, unassigned) [1-68 Isomer 2, (1,1-^2H2)ethyl 2-[4-(1H-pyrazol-1-yl)piperidin-1-yl]-6-azaspiro[3.4]octane-6-carboxylate] | 79.4 nM |  | 6.31 nM |  | 91% | 98%
[2H]C([2H])([2H])COC(=O)N1CCC2(CC(N3CCC(n4cccn4)CC3)C2)C1 (single isomer, unassigned) [1-69 Isomer 2, (2,2,2-^2H3)ethyl 2-[4-(1H-pyrazol-1-yl)piperidin-1-yl]-6-azaspiro[3.4]octane-6-carboxylate] | 79.4 nM |  | 5.01 nM |  | 99% | 104%
[2H]C([2H])([2H])C([2H])([2H])OC(=O)N1CCC2(CC(N3CCC(n4cccn4)CC3)C2)C1 (single isomer, unassigned) [1-70 Isomer 2, (^2H5)ethyl 2-[4-(1H-pyrazol-1-yl)piperidin-1-yl]-6-azaspiro[3.4]octane-6-carboxylate] | 79.4 nM |  | 5.01 nM |  | 92% | 101%
[2H]C([2H])(C)OC(=O)N1CCC2(CC(N3CCC(c4ccnn4C)CC3)C2)C1 (single isomer, unassigned) [1-71 Isomer 2, (1,1-^2H2)ethyl 2-[4-(1-methyl-1H-pyrazol-5-yl)piperidin-1-yl]-6-azaspiro[3.4]octane-6-carboxylate] | > 20000 nM |  | 100 nM |  | 6% | 69%
[2H]C([2H])([2H])COC(=O)N1CCC2(CC(N3CCC(c4ccnn4C)CC3)C2)C1 (single isomer, unassigned) [1-72 Isomer 2, (2,2,2-^2H3)ethyl 2-[4-(1-methyl-1H-pyrazol-5-yl)piperidin-1-yl]-6-azaspiro[3.4]octane-6-carboxylate] | > 20000 nM |  | 158 nM |  | 17% | 69%
[2H]C([2H])([2H])C([2H])([2H])OC(=O)N1CCC2(CC(N3CCC(c4ccnn4C)CC3)C2)C1 (single isomer, unassigned) [1-73 Isomer 2, (^2H5)ethyl 2-[4-(1-methyl-1H-pyrazol-5-yl)piperidin-1-yl]-6-azaspiro[3.4]octane-6-carboxylate] | > 20000 nM |  | 126 nM |  | 11% | 72%
CCC(=O)N1CCCC1C1CCN(C2CC3(CCN(C(=O)OC)C3)C2)CC1 (single isomer, unassigned) [2-5 Isomer 2, methyl 2-[4-(1-propanoylpyrrolidin-2-yl)piperidin-1-yl]-6-azaspiro[3.4]octane-6-carboxylate] | 6310 nM |  | 158 nM |  | 34% | 66%
